Columns and labels:
Format in all cases: cell-based
M1 muscarinic receptor = biological target: T1, M1 muscarinic receptor (Homo sapiens, UniProt P11229); experiment: Functional mobilization of intracellular calcium (FLIPR), M1-CHO cells; conditions: for Emax: 100% efficacy = maximum response obtained with the Carbachol control; for M1 Activity: M1-CHO cells, calcium mobilization (FLIPR)
T1 construct: expressed in transfected cells; host or cells: CHO (M1-CHO)
T1 sequence (P11229 1-460): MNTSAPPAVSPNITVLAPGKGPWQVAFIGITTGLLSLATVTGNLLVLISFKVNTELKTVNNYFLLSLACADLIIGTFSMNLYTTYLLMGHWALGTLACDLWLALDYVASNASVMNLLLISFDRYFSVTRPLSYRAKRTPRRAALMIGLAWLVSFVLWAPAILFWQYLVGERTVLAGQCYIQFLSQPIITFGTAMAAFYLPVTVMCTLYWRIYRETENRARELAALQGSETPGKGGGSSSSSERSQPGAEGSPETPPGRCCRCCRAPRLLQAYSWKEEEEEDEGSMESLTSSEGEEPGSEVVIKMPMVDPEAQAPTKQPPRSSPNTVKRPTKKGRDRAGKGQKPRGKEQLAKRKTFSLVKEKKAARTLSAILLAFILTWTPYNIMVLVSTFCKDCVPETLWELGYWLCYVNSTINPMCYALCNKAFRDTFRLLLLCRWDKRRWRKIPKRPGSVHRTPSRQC
In short: (§1)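 FLIPR fluorescence (ex 488, em 540 nm) recorded 60 sec after compound addition to dye-loaded CHO cells. Agonist mode: compound alone. Antagonist mode: 15 min compound pre-incubation, then carbachol at EC80, or co-application. Efficacy expressed as % of maximal carbachol response.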

M2 muscarinic receptor = biological target: T2, M2 muscarinic receptor (Homo sapiens, UniProt P08172); experiment: Functional mobilization of intracellular calcium (FLIPR), M2-CHO cells; conditions: for Emax: 100% efficacy = maximum response obtained with the Carbachol control; for M2 Activity: M2-CHO cells, calcium mobilization (FLIPR)
T2 construct: expressed in transfected cells; host or cells: CHO (M2-CHO)
T2 sequence (P08172 1-466): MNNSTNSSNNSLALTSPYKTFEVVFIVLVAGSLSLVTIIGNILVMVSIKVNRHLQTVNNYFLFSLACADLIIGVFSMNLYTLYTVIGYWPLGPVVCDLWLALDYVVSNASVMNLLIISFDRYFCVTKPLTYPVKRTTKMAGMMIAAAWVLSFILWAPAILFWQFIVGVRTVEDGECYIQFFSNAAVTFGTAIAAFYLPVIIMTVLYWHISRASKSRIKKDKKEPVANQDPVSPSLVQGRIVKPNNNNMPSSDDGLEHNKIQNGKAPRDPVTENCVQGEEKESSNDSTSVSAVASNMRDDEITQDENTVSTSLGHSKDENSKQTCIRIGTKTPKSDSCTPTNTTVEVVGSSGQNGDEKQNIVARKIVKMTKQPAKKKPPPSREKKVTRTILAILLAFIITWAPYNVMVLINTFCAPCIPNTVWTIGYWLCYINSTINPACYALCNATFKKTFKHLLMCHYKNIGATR
In short: as §1

M3 muscarinic receptor = biological target: T3, M3 muscarinic receptor (Homo sapiens, UniProt P20309); experiment: Functional mobilization of intracellular calcium (FLIPR), M3-CHO cells; conditions: for Emax: 100% efficacy = maximum response obtained with the Carbachol control; for M3 Activity: M3-CHO cells, calcium mobilization (FLIPR)
T3 construct: expressed in transfected cells; host or cells: CHO (M3-CHO)
In short: as §1

M4 muscarinic receptor = biological target: T4, M4 muscarinic receptor (Homo sapiens, UniProt P08173); experiment: Functional mobilization of intracellular calcium (FLIPR), M4-CHO cells; conditions: for Emax: 100% efficacy = maximum response obtained with the Carbachol control; for M4 Activity: M4-CHO cells, calcium mobilization (FLIPR)
T4 construct: expressed in transfected cells; host or cells: CHO (M4-CHO)
T4 sequence (P08173 1-479): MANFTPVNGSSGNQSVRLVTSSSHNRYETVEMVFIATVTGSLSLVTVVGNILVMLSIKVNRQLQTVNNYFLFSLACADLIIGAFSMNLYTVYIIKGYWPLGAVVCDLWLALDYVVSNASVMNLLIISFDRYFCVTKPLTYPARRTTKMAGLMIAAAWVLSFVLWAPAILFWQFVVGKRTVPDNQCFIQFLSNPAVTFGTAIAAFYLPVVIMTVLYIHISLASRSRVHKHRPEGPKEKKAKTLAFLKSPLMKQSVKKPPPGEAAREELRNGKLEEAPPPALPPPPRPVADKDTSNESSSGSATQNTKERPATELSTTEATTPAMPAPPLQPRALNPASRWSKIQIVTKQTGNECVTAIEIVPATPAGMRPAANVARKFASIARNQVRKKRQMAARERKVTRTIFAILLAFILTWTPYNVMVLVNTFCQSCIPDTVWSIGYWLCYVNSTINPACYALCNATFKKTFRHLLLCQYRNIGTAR
In short: as §1

T3 sequence (P20309 whole entry): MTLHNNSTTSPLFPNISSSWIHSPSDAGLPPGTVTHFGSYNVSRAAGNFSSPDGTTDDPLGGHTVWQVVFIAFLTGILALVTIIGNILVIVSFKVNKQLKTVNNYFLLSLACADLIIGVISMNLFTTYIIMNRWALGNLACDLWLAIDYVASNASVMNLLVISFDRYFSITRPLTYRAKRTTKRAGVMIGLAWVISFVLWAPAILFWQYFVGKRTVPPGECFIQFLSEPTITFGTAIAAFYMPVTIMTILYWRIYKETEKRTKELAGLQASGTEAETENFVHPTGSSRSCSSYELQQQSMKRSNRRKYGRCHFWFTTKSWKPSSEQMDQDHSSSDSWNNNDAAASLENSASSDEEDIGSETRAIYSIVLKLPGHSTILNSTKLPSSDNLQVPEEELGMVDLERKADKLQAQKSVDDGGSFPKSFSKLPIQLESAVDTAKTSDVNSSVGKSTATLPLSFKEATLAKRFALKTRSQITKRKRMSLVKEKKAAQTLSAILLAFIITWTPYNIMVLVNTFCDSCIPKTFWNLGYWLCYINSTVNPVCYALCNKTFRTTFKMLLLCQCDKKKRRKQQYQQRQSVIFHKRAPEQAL

Compound | Emax (M1 muscarinic receptor) [%] | M1 Activity (M1 muscarinic receptor) | Emax (M2 muscarinic receptor) [%] | M2 Activity (M2 muscarinic receptor) | Emax (M3 muscarinic receptor) [%] | M3 Activity (M3 muscarinic receptor) | Emax (M4 muscarinic receptor) [%] | M4 Activity (M4 muscarinic receptor)
c1cc2c(c(C3CCN(C4C[C@@H]5CC[C@@H]4C5)CC3)c1)OCO2 (some centres unmarked) [Compound 236] | 25 to 100 | ++ (activity was measured to be from 1.0 μM to 5.0 μM) | < 25 | + (activity was measured to be greater than 5.0 μM) | < 25 | + (activity was measured to be greater than 5.0 μM) | 25 to 100 | +++ (activity was measured to be less than 1.0 μM)
COc1ccc(-c2ccoc2)cc1C1CCN([C@@H]2C[C@H]3CC[C@H]2C3)CC1 [Compound 237] | < 25 | + (activity was measured to be greater than 5.0 μM) | < 25 | + (activity was measured to be greater than 5.0 μM) | < 25 | + (activity was measured to be greater than 5.0 μM) | 25 to 100 | ++ (activity was measured to be from 1.0 μM to 5.0 μM)
COC(=O)CC1CCCC(N2CCC(c3ccccc3OC)CC2)C1 (centres unmarked) [Compound 238] | 25 to 100 | + (activity was measured to be greater than 5.0 μM) | < 25 | + (activity was measured to be greater than 5.0 μM) | < 25 | + (activity was measured to be greater than 5.0 μM) | 25 to 100 | +++ (activity was measured to be less than 1.0 μM)
COc1ccc(F)cc1C1(F)CCN(CC2CCOCC2)CC1 [Compound 239] | 25 to 100 | + (activity was measured to be greater than 5.0 μM) | < 25 | + (activity was measured to be greater than 5.0 μM) | < 25 | + (activity was measured to be greater than 5.0 μM) | 25 to 100 | ++ (activity was measured to be from 1.0 μM to 5.0 μM)
COc1ccc(-c2ccccc2C2CCN([C@H]3C[C@H]4CC[C@H]3C4)CC2)cc1 [Compound 241] | 25 to 100 | + (activity was measured to be greater than 5.0 μM) | < 25 | + (activity was measured to be greater than 5.0 μM) | < 25 | + (activity was measured to be greater than 5.0 μM) | 25 to 100 | ++ (activity was measured to be from 1.0 μM to 5.0 μM)
COc1ccc(F)cc1C1(F)CCN(C2CCC3CCC2C3)CC1 (centres unmarked) [Compound 242] | 25 to 100 | ++ (activity was measured to be from 1.0 μM to 5.0 μM) | 25 to 100 | + (activity was measured to be greater than 5.0 μM) | < 25 | + (activity was measured to be greater than 5.0 μM) | 25 to 100 | +++ (activity was measured to be less than 1.0 μM)
CCOC(=O)N1CCC(CN2CCC(c3cc(-c4ccc(C(=O)NC)cc4)ccc3OC)CC2)CC1 [Compound 243] | 25 to 100 | +++ (activity was measured to be less than 1.0 μM) | < 25 | + (activity was measured to be greater than 5.0 μM) | < 25 | + (activity was measured to be greater than 5.0 μM) | 25 to 100 | +++ (activity was measured to be less than 1.0 μM)
COc1ccc(C)cc1C1CCN(C2C[C@H]3CC[C@H](C2)C3)CC1 (some centres unmarked) [Compound 246] | 25 to 100 | ++ (activity was measured to be from 1.0 μM to 5.0 μM) | 25 to 100 | + (activity was measured to be greater than 5.0 μM) | < 25 | + (activity was measured to be greater than 5.0 μM) | 25 to 100 | +++ (activity was measured to be less than 1.0 μM)
COc1ccc(F)cc1C1(OC)CCN(C2CC3CCC(C3)C2)CC1 (centres unmarked) [Compound 247] | < 25 | + (activity was measured to be greater than 5.0 μM) | < 25 | + (activity was measured to be greater than 5.0 μM) | < 25 | + (activity was measured to be greater than 5.0 μM) | 25 to 100 | +++ (activity was measured to be less than 1.0 μM)
COc1ccc(Cl)cc1C1CCN(C2CC[S+]([O-])CC2)CC1 (centres unmarked) [Compound 248] | < 25 | + (activity was measured to be greater than 5.0 μM) | < 25 | + (activity was measured to be greater than 5.0 μM) | < 25 | + (activity was measured to be greater than 5.0 μM) | 25 to 100 | + (activity was measured to be greater than 5.0 μM)
COc1ccc(Cl)cc1C1CCN(C2CCOCC2)CC1 [Compound 249] | 25 to 100 | + (activity was measured to be greater than 5.0 μM) | 25 to 100 | + (activity was measured to be greater than 5.0 μM) | < 25 | + (activity was measured to be greater than 5.0 μM) | 25 to 100 | +++ (activity was measured to be less than 1.0 μM)
COc1ccc(C#N)cc1C1CCN([C@H]2C[C@H]3CC[C@H]2C3)CC1 [Compound 250] | 25 to 100 | ++ (activity was measured to be from 1.0 μM to 5.0 μM) | < 25 | + (activity was measured to be greater than 5.0 μM) | < 25 | + (activity was measured to be greater than 5.0 μM) | 25 to 100 | +++ (activity was measured to be less than 1.0 μM)
COC(=O)c1ccc(-c2ccccc2C2CCN([C@H]3C[C@H]4CC[C@H]3C4)CC2)cc1 [Compound 251] | 25 to 100 | + (activity was measured to be greater than 5.0 μM) | 25 to 100 | + (activity was measured to be greater than 5.0 μM) | < 25 | + (activity was measured to be greater than 5.0 μM) | 25 to 100 | +++ (activity was measured to be less than 1.0 μM)
Cc1ccccc1C1(O)CCN(C2CC3CCC2C3)CC1 (centres unmarked) [Compound 252] | < 25 | + (activity was measured to be greater than 5.0 μM) | < 25 | + (activity was measured to be greater than 5.0 μM) |  | + (activity was measured to be greater than 5.0 μM) | < 25 | + (activity was measured to be greater than 5.0 μM)
CCOC(=O)N1CCC(CN2CCC(F)(c3cc(F)ccc3OC)CC2)CC1 [Compound 253] | 25 to 100 | +++ (activity was measured to be less than 1.0 μM) | < 25 | ++ (activity was measured to be from 1.0 μM to 5.0 μM) | < 25 | + (activity was measured to be greater than 5.0 μM) | 25 to 100 | +++ (activity was measured to be less than 1.0 μM)

Reference: patent publication US7880007B2, “Bicyclic substituted phenyl piperidine modulators of muscarinic receptors” (Vertex Pharmaceuticals Incorporated, priority 2004, dated 2011)
